Where “and” joins values, the source holds several entries; their conditions need not be identical. Identical values can stand only once.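 Cells were grown in 96-well plates and exposed to each compound for 48 hours at five concentrations; endpoints were interpolated linearly between bracketing concentrations, or set to the highest concentration if not reached. The concentration for 50% growth inhibition is given as GI50. Definition used: TGI = concentration required for complete inhibition of growth.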
Key:
Assay in all cases: inhibition of tumour cell growth, NCI panel, 48 h
HOP-18 NSCLC = test system: HOP-18 NSCLC
KM20L2 colon = test system: KM20L2 colon
DLD-1 colon = test system: DLD-1 colon
LXFL 529 NSCLC = test system: LXFL 529 NSCLC
SNB-78 CNS = test system: SNB-78 CNS
MDA-MB-435 = test system: MDA-MB-435
MDA-MB-231 breast = test system: MDA-MB-231 breast
MCF7 breast = test system: MCF7 breast
BT-549 breast = test system: BT-549 breast
NCI/ADR-RES ovarian = test system: NCI/ADR-RES ovarian

SMILES	TGI (HOP-18 NSCLC) [µM]	TGI (KM20L2 colon) [µM]	TGI (DLD-1 colon) [µM]	TGI (LXFL 529 NSCLC) [µM]	TGI (SNB-78 CNS) [µM]	further results
O=C(CC(=O)C(=O)Nc1ccccc1)CC(c1ccccc1)c1c(O)c2ccccc2oc1=O (centres undefined)	> 100	> 100	> 100	–	–	–
Cc1ccc(C2CC(c3ccc([N+](=O)[O-])cc3)=Nc3ccccc3S2)cc1 (centres undefined)	> 100	96.7	85.5	37.5	–	–
COC(=O)C1CC(=O)CCC1c1ccccc1 (centres undefined)	> 100	> 100	> 100	> 100	> 100	–
N#CNC(N)=NCCO	> 100	> 100	> 100	> 100	> 100	–
O=S1CSCS1 (centres undefined)	> 100	> 100	> 100	> 100	> 100	–
N=CCCN(CCC=N)c1ccc(/C=C2\CN(NC(=O)c3ccc(Cl)cc3)C(c3ccccc3)=N2)cc1	> 100	> 100	> 100	> 100	> 100	–
O=C(CC(=O)c1ccc([N+](=O)[O-])cc1)C(=O)Nc1nccs1	> 100	> 100	> 100	> 100	> 100	–
Nc1ncnc2c1ncn2C1OC(CSC(F)(F)F)C(O)C1O (centres undefined)	> 100	> 100	> 100	> 100	> 100	–
Cc1cc(=O)n(-c2ccccc2)c(=O)o1	> 100	> 100	> 100	> 100	> 100	–
C/C=C(\C)c1cc(=O)c2c(C)cc3c(c2o1)C(=O)c1c(O)c(C2CC(C)(N(C)C)C(O)C(C)O2)cc(C2CC(N(C)C)C(O)C(C)O2)c1C3=O (centres undefined)	> 100	25	> 35.2	–	50.6	TGI (MDA-MB-435): 0.866 µM; TGI (MDA-MB-231 breast): 0.764 µM; TGI (MCF7 breast): 14.5 µM and 8.8 µM; TGI (BT-549 breast): 0.735 µM
Cc1ccc(NC(=O)CC/C(CC(=O)C(C)(C)C)=N/NC(=O)C(N)=O)cc1C	> 100	> 100	> 100	> 100	> 100	–
NC(N)=NS(=O)(=O)c1ccc(Nc2c3ccccc3nc3c(C(=O)N4CCN(CCO)CC4)cccc23)cc1	> 100	> 100	> 100	> 100	> 100	–
CC(C)N(C(=O)C12C3C4C5C3C1(C(=O)N(C(C)C)C(C)C)C5(C#N)C42)C(C)C (centres undefined)	> 100	> 100	66.5	> 100	> 100	–
CC1(C)CCC[C@@]2(C)C1C[C@H](O)[C@@]1(C)O[C@@](C)([C@H](O)CO)CCC21 (some centres undefined)	> 100	> 100	–	> 100	> 100	–
O=C(O)C1CCc2nnc(-c3ccccc3)n21 (centres undefined)	> 100	> 100	> 100	> 100	> 100	–
CC12CCC([C@H](N3CCOCC3)/C1=N\OCCN1CCCC1)C2(C)C (some centres undefined)	> 100	> 100	> 100	> 100	> 100	–
CN(C)c1ccc2c(c1)CN1C(=O)c3ccccc3C1=N2	> 100	–	> 100	> 100	> 100	GI50 (SNB-78 CNS): > 100 µM; GI50 (HOP-18 NSCLC): 6.02 µM; GI50 (LXFL 529 NSCLC): > 100 µM; GI50 (DLD-1 colon): > 100 µM
CC1(C)C(c2ccccc2)=NN(O)c2ccccc21	> 100	> 100	> 100	> 100	> 100	–
CCOC(=O)c1cc(/C=C/C(C)=C/C(=O)OC)oc1-c1ccccc1	> 100	> 100	> 100	–	–	–
CCC1=C(C)/C(=C/c2[nH]c(C(Br)Br)c(CC)c2C)N=C1C(Br)Br	> 100	> 100	> 100	> 100	> 100	–
CN1C(OCc2ccccc2)c2c(ccc3c2OCO3)C2C=Cc3cc4c(cc3C21)OCO4 (centres undefined)	2.61	2.95	1.65	1.37	2.04	–
COc1cc(=O)oc(/C=C/C=O)c1C	37.5	30.8	34.3	32.4	–	–
NC(C/[N+]([O-])=N/O)C(=O)O (centres undefined)	> 472	> 500	> 500	–	> 500	GI50 (MDA-MB-435): 11.7 µM and 17.9 µM and 10.6 µM; TGI (MDA-MB-435): > 500 µM; TGI (NCI/ADR-RES ovarian): > 434 µM; TGI (MDA-MB-231 breast): > 500 µM; GI50 (MCF7 breast): 1.2 µM and 4.17 µM and 1.15 µM; TGI (MCF7 breast): > 100 µM and 295 µM; GI50 (BT-549 breast): 4.46 µM and 9.57 µM and 9.78 µM; TGI (BT-549 breast): > 500 µM
CC(=O)OCCOCNC(=S)N/N=C/c1ccc2ccccc2n1	> 100	79.8	> 100	> 100	> 100	–
O=C1c2ccccc2C(=O)C2C1C1C(=O)c3ccccc3C(=O)C21 (centres undefined)	> 100	> 100	> 100	> 100	–	–
[C-]#[O+].[Cl][Sn]([Cl])[Cl].[Cl][Sn]([Cl])[Cl].[Pt].c1ccc([PH+](c2ccccc2)c2ccccc2)cc1.c1ccc([PH+](c2ccccc2)c2ccccc2)cc1	90	> 100	> 100	82.1	> 100	GI50 (SNB-78 CNS): > 100 µM; GI50 (HOP-18 NSCLC): 25.3 µM; GI50 (KM20L2 colon): > 100 µM; GI50 (LXFL 529 NSCLC): 23.2 µM; GI50 (DLD-1 colon): 45.5 µM
O=C1c2cccc3cc([N+](=O)[O-])cc(c23)C(=O)N1NC1=NCCN1	> 100	> 100	> 100	> 100	> 100	–
O=C(c1ccccc1)C(c1ccccc1)C1(O)C(=O)Nc2ccccc21 (centres undefined)	–	> 100	> 100	> 100	> 100	–

Source: PubChem BioAssay (NCI)
